Where only a bound is given, the exact number is not on record here.

Sequence of Human Factor D (P00746 26-253): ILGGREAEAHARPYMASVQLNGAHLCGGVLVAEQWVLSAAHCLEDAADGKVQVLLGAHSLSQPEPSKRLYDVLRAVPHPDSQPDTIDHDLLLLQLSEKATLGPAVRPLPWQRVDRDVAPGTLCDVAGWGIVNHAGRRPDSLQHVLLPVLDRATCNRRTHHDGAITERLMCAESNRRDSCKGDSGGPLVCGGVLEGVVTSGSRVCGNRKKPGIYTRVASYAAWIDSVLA

The first assay concerns the target Human Factor D (Homo sapiens (Human), UniProt P00746). As to the kind of experiment: Human Factor D assay. It counts as biochemical. As to conditions: Table 3; Factor D inhibition, substrate Z-L-Lys-SBzl. The protocol:
Human Factor D (purified from human serum, Complement Technology, Inc.) at 80 nM final concentration is incubated with test compound at various concentrations for 5 min at room temperature in 50 mM Tris, 1M NaCl, pH 7.5. A synthetic substrate Z-L-Lys-SBzl and DTNB (Ellman's reagent) are added to final concentrations of 100 μM each. […] IC50 values are calculated by nonlinear regression of complement Factor D reaction rates as a function of test compound concentration.
The molecule `CC(=O)c1nn(CC(=O)N2C[C@H](F)C[C@H]2C(=O)Nc2cccc(-c3ccc4scnc4c3)c2F)c2ccc(-c3cnc(C)nc3)cc12` [Compound 520, (2S,4R)-1-(2-(3-acetyl-5-(2-methylpyrimidin-5-yl)-1H-indazol-1-yl)acetyl)-N-(3-(benzo[d]thiazol-5-yl)-2-fluorophenyl)-4-fluoropyrrolidine-2-carboxamide] yielded an IC50 of less than 1 µM.

With `COC(=O)C[C@H]1CCCN1C(=O)Cn1nc(C(C)=O)c2cc(-c3cnc(C)nc3)ccc21` [Compound 509, (R)-methyl 2-(1-(2-(3-acetyl-5-(2-methylpyrimidin-5-yl)-1H-indazol-1-yl)acetyl)pyrrolidin-2-yl)acetate], the IC50 was greater than 10 µM.

The molecule `CC(=O)c1nn(CC(=O)N2C[C@H](F)C[C@H]2C(=O)Nc2cccc(-c3ccccc3Cl)c2F)c2ccc(N3CCn4c(nnc4C(F)(F)F)C3)cc12` [Compound 531, (2S,4R)-1-(2-(3-acetyl-5-(3-(trifluoromethyl)-5,6-dihydro-[1,2,4]triazolo[4,3-a]pyrazin-7(8H)-yl)-1H-indazol-1-yl)acetyl)-N-(2′-chloro-2-fluorobiphenyl-3-yl)-4-fluoropyrrolidine-2-carboxamide] gave an IC50 of less than 1 µM.

Take `CNS(=O)(=O)c1ccc(Cl)c(-c2cccc(NC(=O)[C@@H]3C[C@@H](F)CN3C(=O)Cn3nc(C(C)=O)c4cc(-c5cnc(C)nc5)ccc43)c2F)c1` [Compound 529, (2S,4R)-1-(2-(3-acetyl-5-(2-methylpyrimidin-5-yl)-1H-indazol-1-yl)acetyl)-N-(2′-chloro-2-fluoro-5′-(N-methylsulfamoyl)bi-phenyl-3-yl)-4-fluoropyrrolidine-2-carboxamide]: the 50% inhibitory concentration (IC50) is less than 1 µM.

As for `CC(=O)c1nn(CC(=O)N2C[C@H](F)C[C@H]2C(=O)Nc2ccc3c(S(=O)(=O)O)cccc3c2)c2ccc(-c3cnc(C)nc3)cc12` [Compound 511, 6-((2S,4R)-1-(2-(3-Acetyl-5-(2-methylpyrimidin-5-yl)-1H-indazol-1-yl)acetyl)-4-fluoropyrrolidine-2-carboxamido)naphthalene-1-sulfonic Acid], the half-maximal inhibitory concentration (IC50) was 1 to 10 µM.

Staying with this assay, now noted: Table 4; Factor D inhibition, substrate Z-L-Lys-SBzl.
Molecule `Cc1cccc(NC(=O)[C@@H]2CCC(F)CCN2C(=O)Cn2cc(C(N)=O)c3cc(-c4ccc5c(c4)CCCC5)ccc32)n1` (stereo partly drawn) [Compound 589, 1-(2-((2S)-5-fluoro-2-((6-methylpyridin-2-yl)carbamoyl)azepan-1-yl)-2-oxoethyl)-5-(5,6,7,8-tetrahydronaphthalen-2-yl)-1H-indole-3-carboxamide] registered a 50% inhibitory concentration (IC50) greater than 10 µM.

As for `CC(=O)c1nn(CC(=O)N2C[C@H](F)C[C@H]2C(=O)OCc2ccc(Br)nc2N)c2ccc(-c3cnc(C)nc3)cc12` [Compound 570, (2S,4R)-(2-amino-6-bromopyridin-3-yl)methyl 1-(2-(3-acetyl-5-(2-methylpyrimidin-5-yl)-1H-indazol-1-yl)acetyl)-4-fluoropyrrolidine-2-carboxylate], the IC50 was greater than 10 µM.

The molecule `CC[C@H](NC(=O)Cn1nc(C(C)=O)c2cc(-c3cnc(C)nc3)ccc21)C(=O)Nc1cccc(Br)n1` [Compound 600] registered an IC50 of less than 1 µM.

In turn, `COc1ncc(-c2ccc3c(c2)c(C(C)=O)nn3CC(=O)N2C[C@H](F)C[C@H]2C(=O)Nc2nc(Br)ccc2C)cn1` [Compound 554, (2S,4R)-1-(2-(3-acetyl-5-(2-methoxypyrimidin-5-yl)-1H-indazol-1-yl)acetyl)-N-(6-bromo-3-methylpyridin-2-yl)-4-fluoropyrrolidine-2-carboxamide] showed an IC50 of less than 1 µM.

In the case of `CC(=O)c1nn(CC(=O)N2C[C@H](F)C[C@@H]2c2nc3nc(Br)ccc3[nH]2)c2ccc(-c3cnc(C)nc3)cc12` [Compound 565, 2-(3-Acetyl-5-(2-methylpyrimidin-5-yl)-1H-indazol-1-yl)-1-((2R,4R)-2-(5-bromo-1H-imidazo[4,5-b]pyridin-2-yl)-4-fluoropyrrolidin-1-yl)ethan-1-one], the IC50 was greater than 10 µM.

Regarding `Cc1cccc(C[C@H](O)[C@@H]2C[C@@H](F)CN2C(=O)Cn2cc(C(N)=O)c3cc(-c4cnc(C)nc4)ccc32)n1` [Compound 559, 1-(2-((2S,4R)-4-Fluoro-2-((S)-1-hydroxy-2-(6-methylpyridin-2-yl)ethyl)pyrrolidin-1-yl)-2-oxoethyl)-5-(2-methylpyrimidin-5-yl)-1H-indole-3-carboxamide], the IC50 was greater than 10 µM.

In turn, `Cc1cc2ncc(-c3nc4c(s3)c(C(N)=O)nn4CC(=O)N3C[C@H](F)C[C@H]3C(=S)NC3CCC(c4cc5sccc5s4)C3)cn2n1` (stereo partly drawn) [Compound 640, 1-(2-((2S,4R)-4-fluoro-2-((3-(thieno[3,2-b]thiophen-2-yl)cyclopentyl)carba-mothioyl)pyrrolidin-1-yl)-2-oxoethyl)-5-(2-methylpyrazolo[1,5-a]pyrimidin-6-yl)-1H-pyrazolo[3,4-d]thiazole-3-carboxamide] came in with a 50% inhibitory concentration (IC50) greater than 10 µM.

`COC(=O)Cc1ccccc1CNC(=O)Cn1nc(C(C)=O)c2cc(-c3cnc(C)nc3)ccc21` [Compound 537, methyl 2-(2-((2-(3-acetyl-5-(2-methylpyrimidin-5-yl)-1H-indazol-1-yl)acetamido)meth-yl)phenyl)acetate]: the IC50 is greater than 10 µM.

`CC(=O)c1nn(CC(=O)N2C[C@H](F)C[C@H]2C(=O)NC2CCN(C(=O)c3cc(Cl)c[nH]3)CC2)c2ccc(-c3cnc(C)nc3)cc12` [Compound 532, (2S,4R)-1-(2-(3-acetyl-5-(2-methylpyrimidin-5-yl)-1H-indazol-1-yl)acetyl)-N-(1-(4-chloro-1H-pyrrole-2-carbonyl)piperidin-4-yl)-4-fluoropyrrolidine-2-carboxamide] registered an IC50 of less than 1 µM.

`CC(=O)c1nn(CC(=O)N2C[C@H](F)C[C@H]2C(=O)NCC#N)c2ccc(-c3cnc(C)nc3)cc12` [Compound 601]: the IC50 was less than 1 µM.

In turn, `Cc1cccc(NC(=O)[C@@H]2CCC(F)CCN2C(=O)Cn2cc(C(N)=O)c3cc(-c4cnn5c4CCC5)ccc32)n1` (stereo partly drawn) [Compound 617, 5-(5,6-Dihydro-4H-pyrrolo[1,2-b]pyrazol-3-yl)-1-(2-((2S)-5-fluoro-2-((6-methylpyridin-2-yl)carbamoyl)azepan-1-yl)-2-oxoethyl)-1H-indole-3-carboxamide] had a half-inhibitory concentration (IC50) greater than 10 µM.

For `Cc1ncc(-c2ccc3c(c2)c([C@@H](C)O)nn3CC(=O)N2C[C@H](F)C[C@H]2C(=O)O)cn1` [Compound 550, (2S,4R)-4-fluoro-1-(2-(3-((R)-1-hydroxyethyl)-5-(2-methylpyrimidin-5-yl)-1H-indazol-1-yl)acetyl)pyrrolidine-2-carboxylic acid], the concentration for half-maximal inhibition (IC50) was greater than 10 µM.

The molecule `Cc1cccc(NC(=O)[C@@H]2CCC(F)CCN2C(=O)Cn2cc(C(N)=O)c3cc(-c4cnc5n4CCCC5)ccc32)n1` (stereo partly drawn) [Compound 616, 1-(2-((2S)-5-Fluoro-2-((6-methylpyridin-2-yl)carbamoyl)azepan-1-yl)-2-oxoethyl)-5-(5,6,7,8-tetrahydroimidazo[1,2-a]pyridin-3-yl)-1H-indole-3-carboxamide] returned an IC50 greater than 10 µM.

`Cc1cccc(NC(=O)[C@@H]2CCC(F)CCN2C(=O)Cn2cc(C(N)=O)c3cc(-c4cnc5c(c4)CCC5)ccc32)n1` (stereo partly drawn) [Compound 593, 5-(6,7-Dihydro-5H-cyclopenta[b]pyridin-3-yl)-1-(2-((2S)-5-fluoro-2-((6-methylpyridin-2-yl)carbamoyl)azepan-1-yl)-2-oxoethyl)-1H-indole-3-carboxamide] displayed an IC50 greater than 10 µM.

Regarding `Cc1cccc(NC(=O)[C@@H]2CCC(F)CCN2C(=O)Cn2cc(C(N)=O)c3cc(-c4ccc(N)nc4)ccc32)n1` (stereo partly drawn) [Compound 595, 5-(6-Aminopyridin-3-yl)-1-(2-((2S)-5-fluoro-2-((6-methylpyridin-2-yl)carbamoyl)azepan-1-yl)-2-oxoethyl)-1H-indole-3-carboxamide], the IC50 was greater than 10 µM.

Turning to `C=CCCCCCCCCCNc1ncc(-c2ccc3c(c2)c(C(C)=O)nn3CC(=O)O)cn1` [Compound 535, 2-(3-acetyl-5-(2-(undec-10-en-1-ylamino)pyrimidin-5-yl)-1H-indazol-1-yl)acetic acid], the IC50 was greater than 10 µM.

Molecule `COP(=O)(CC(=O)c1nn(CC(=O)N2C[C@H](F)C[C@H]2C(=O)Nc2cccc(Br)n2)c2ccc(-c3cnc(C)nc3)cc12)OC` [Compound 625, dimethyl (2-(1-(2-((2S,4R)-2-((6-bromopyridin-2-yl)carbamoyl)-4-fluoropyrrolidin-1-yl)-2-oxoethyl)-5-(2-methylpyrimidin-5-yl)-1H-indazol-3-yl)-2-oxoethyl)phos-phonate] registered a 50% inhibitory concentration (IC50) greater than 10 µM.

The molecule `CC(=O)c1nn2c3ccc(cc13)-c1cnc(nc1)NCCCCCCCCCCCc1cc(Cl)c(F)c(c1)CNC(=O)[C@@H]1C[C@@H](F)CN1C(=O)C2` [Compound 541] gave an IC50 greater than 10 µM.

In turn, `CC(=O)c1nn(CC(=O)N2CC=CC[C@H]2C(=O)Nc2cccc(C)n2)c2ccc(-c3cnc(C)nc3)cc12` [Compound 569, (S)-1-(2-(3-acetyl-5-(2-methylpyrimidin-5-yl)-1H-indazol-1-yl)acetyl)-N-(6-methylpyridin-2-yl)-1,2,3,6-tetrahydropyridine-2-carboxamide] yielded an IC50 greater than 10 µM.

Regarding `CC(=O)c1nn(CC(=O)N2C[C@H](F)C[C@H]2c2nc3nc(Br)ccc3[nH]2)c2ccc(-c3cnc(C)nc3)cc12` [Compound 564, 2-(3-Acetyl-5-(2-methylpyrimidin-5-yl)-1H-indazol-1-yl)-1-((2S,4R)-2-(5-bromo-1H-imidazo[4,5-b]pyridin-2-yl)-4-fluoropyrrolidin-1-yl)ethan-1-one], the IC50 was greater than 10 µM.

On to `C/C(=N\O)c1nn(CC(=O)N2C[C@H](F)C[C@H]2C(=O)Nc2cccc(Br)n2)c2ccc(-c3cnc(C)nc3)cc12` [Compound 555, (2S,4R)—N-(6-Bromopyridin-2-yl)-4-fluoro-1-(2-(3-((E)-1-(hydroxyimino)ethyl)-5-(2-methylpyrimidin-5-yl)-1H-indazol-1-yl)acetyl)pyrrolidine-2-carboxamide], for which the IC50 is less than 1 µM.

One may read the IC50 as the concentration that gives 50% inhibition. Read a low IC50 as greater potency.

The values are drawn from patent US11407738B2 (Achillion Pharmaceuticals, Inc., priority 2015, dated 2022).
